Laboratory results: US9877940B2, “Anthraquinone compounds and their uses” (DUNDALK INSTITUTE OF TECHNOLOGY, priority 2010, dated 2018)

How the values were obtained:
BK channels [1] = molecular target: T1, BK channels (Oryctolagus cuniculus, UniProt Q9BG98); assay: Perforated patch whole cell patch clamp, outward BK current in isolated smooth muscle cells; assay type: cell-based, rabbit; conditions: 10 μM; steps from −80 mV to +50 mV; holding −60 mV
T1 construct: wherein the native BK channels were more sensitive to Ca^2+; from tissue
T1 sequence (Q9BG98 whole entry): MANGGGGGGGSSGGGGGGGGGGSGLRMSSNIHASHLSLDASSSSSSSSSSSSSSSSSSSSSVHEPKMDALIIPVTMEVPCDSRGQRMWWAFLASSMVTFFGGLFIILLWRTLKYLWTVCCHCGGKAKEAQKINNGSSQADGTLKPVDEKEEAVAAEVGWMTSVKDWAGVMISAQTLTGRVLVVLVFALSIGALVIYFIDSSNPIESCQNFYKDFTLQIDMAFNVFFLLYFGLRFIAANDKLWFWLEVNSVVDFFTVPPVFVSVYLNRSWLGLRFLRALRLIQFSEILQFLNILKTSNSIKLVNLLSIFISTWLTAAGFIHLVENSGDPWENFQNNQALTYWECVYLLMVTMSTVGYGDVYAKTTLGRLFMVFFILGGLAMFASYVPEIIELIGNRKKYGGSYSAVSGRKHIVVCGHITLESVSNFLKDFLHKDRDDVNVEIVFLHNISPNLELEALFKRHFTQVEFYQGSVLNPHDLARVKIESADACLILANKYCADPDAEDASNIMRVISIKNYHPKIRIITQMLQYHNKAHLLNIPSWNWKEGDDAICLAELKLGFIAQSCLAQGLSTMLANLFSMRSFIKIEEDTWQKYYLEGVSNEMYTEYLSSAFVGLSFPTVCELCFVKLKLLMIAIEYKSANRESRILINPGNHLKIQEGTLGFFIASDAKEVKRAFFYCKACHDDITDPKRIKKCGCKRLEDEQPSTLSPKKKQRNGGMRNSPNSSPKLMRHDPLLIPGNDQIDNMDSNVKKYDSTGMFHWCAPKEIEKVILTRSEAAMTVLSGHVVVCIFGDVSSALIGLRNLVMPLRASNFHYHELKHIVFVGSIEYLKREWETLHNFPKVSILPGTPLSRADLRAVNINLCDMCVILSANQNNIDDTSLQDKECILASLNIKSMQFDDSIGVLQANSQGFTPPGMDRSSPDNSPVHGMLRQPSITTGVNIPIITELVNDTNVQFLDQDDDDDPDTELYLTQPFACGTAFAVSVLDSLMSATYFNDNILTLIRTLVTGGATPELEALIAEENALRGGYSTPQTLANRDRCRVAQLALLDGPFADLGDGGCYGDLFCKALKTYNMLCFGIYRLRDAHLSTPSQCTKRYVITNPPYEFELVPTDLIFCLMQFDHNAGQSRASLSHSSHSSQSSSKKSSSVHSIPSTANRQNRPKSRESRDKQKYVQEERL
Experimental: The cell membrane was perforated using the antibiotic amphotericin B (600 μg·ml^−1).
Standard Hank's solution is used to bathe the cells in these experiments. Isolated smooth muscle cells from rabbit urethra we held at −60 mV. The test protocol involved stepping from −60 mV to −80 mV for 500 msecs, and then stepping the voltage up in +10 mV increments to +50 mV before returning to the holding potential of −60 mV.

BK channels [2] = molecular target: T1, BK channels; assay: Single channel recordings, inside-out patch clamp, voltage ramps, isolated smooth muscle cells of the rabbit bladder; assay type: cell-based; conditions: for ΔV1/2 (mV) in 100 nm Ca^2+: 10 μM compound, inside-out patch; for effect on BK channel activity, in words (SAR discussion based on V1/2 data): inside out patches on rabbit smooth muscle cells
Experimental: All experiments were approved by the Dundalk Institute of Technology Animal Care and Use Committee. […] The urinary bladder and most proximal 1.5 cm of the urethra was removed and placed in Krebs solution. Strips of bladder tissue, 0.5 cm in width were dissected, cut into 1 mm^3 pieces and stored in Ca^2+-free Hanks' solution for 30 min prior to cell dispersal. Tissue pieces were incubated in dispersal medium containing (per 5 ml) of Ca^2+-free Hanks' solution: 15 mg collagenase (Sigma type 1A), 1 mg protease (Sigma type XXIV), 10 mg bovine serum albumin (Sigma) and 10 mg trypsin inhibitor (Sigma) for 10-15 min at 37° C. Tissue was then transferred to Ca^2+-free Hanks' solution and stirred for a further 10-15 min to release single smooth muscle cells. These were plated in Petri dishes containing 100 μM Ca^2+ Hanks' solution and stored at 4° C. for use within 8 h. During experiments, the dish containing the cells was continuously perfused with Hanks' solution at 36±1° C. Additionally the cell under study was continuously superfused by means of a custom built close delivery system with a pipette of tip diameter 200 μm placed approximately 300 μm from the cell. The high K^+ solution in the close delivery system could be switched to a drug-containing solution with a dead space time of less than 5 s.
For whole cell recordings pipettes were pulled from borosilicate glass capillary tubing (1.5 mm outer diameter, 1.17 mm inner diameter; Clark Medical Instruments) to a tip of diameter approximately 1-1.5 μm and resistance of 2-4 Mohms. For single channel recordings, pipettes were pulled from borosilicate glass capillary tubing (1.5 mm outer diameter, 0.8 mm inner diameter; Clark Medical Instruments) and fire polished before use. Voltage clamp commands were delivered via an Axopatch 1D or Axon 200B patch clamp amplifiers (Axon Instruments) and membrane currents were recorded by a 12 bit AD/DA converter (Axodata 1200 or Labmaster, Scientific Solutions) interfaced to an Intel computer running pCLAMP software.
All values in (mM): KCl, 140. Glucose, 10, EGTA 1 and HEPES, 10. For free Ca^2+ greater than 300 nM: All values in (mM): KCl, 140. Glucose, 10, H-EDTA 1 and HEPES, 10. The same solution composition is used in the bath as in the patch pipette for these experiments except that the pipette solution contained 100 nM Ca^2+.
In single channel experiments voltage commands were applied using pClamp ramped potentials. This allowed more efficient measurement of slope conductance and channel activation than conventional step depolarisations. Activation curves were calculated by averaging current responses to 15 potential ramps and dividing each data point of the averaged current by the single channel amplitude at that holding potential, after leakage current correction. […] This analysis provides a continuous recording of the number of open channels multiplied by the open probability (NPo) over the entire voltage range. To obtain values for the steepness of the voltage-dependent activation and half-maximal activation voltage, activation curves were fitted with Boltzman functions of the form: NPo=n/{1+exp[−K(V−V1/2)]} where N is the number of channels in the patch, n is the maximal NPo level, K^−1 is the steepness of the voltage-dependent activation (change in potential necessary to cause an e-fold increase in activation) and V1/2 is the voltage at which there is half-maximal activation. Again, all of the experiments were carried out at 36±1° C.
The patches were held at a potential of −100 mV and voltage ramps were then applied from −100 mV up to +100 mV over 2 s.
Patches were held at −100 mV and ramped through to +100 mV and each sweep was repeated 15 times. The same protocol was repeated after the patch was incubated in 1 μM Ca^2+.

L-type calcium channel = assay: Inward L-type calcium current, perforated patch clamp with Cs+ pipette solution, isolated smooth muscle cells of the rabbit bladder; assay type: cell-based; conditions: held at −60 mV, stepped to 0 mV for 500 ms
Source text: Using methods described above herein, the patch pipette solution was altered to allow for measurement of inward L-type calcium currents which although present in earlier studies are not visible due to the overwhelming size of the outward BK current. By replacing K^+ with Cs^+ ions, the outward current is now blocked and a prominent inward current carried by Calcium is present. This is the L-type calcium ion channel currents allowing calcium into the cells.
All values in (mM): CsCl, 132.96. MgCl2.6H20, 1. EGTA, 0.5 and HEPES, 10.
With reference to FIG. 5, isolated smooth muscle cells from the rabbit bladder were held at −60 mV and stepped to 0 mV for 500 ms. Pipette solutions contained Cs^+ to block outward K^+ currents.

BK channel = BK channel (Homo sapiens, UniProt Q12791); conditions: applied to the inside of the membrane; cited from earlier work
BK channel, sequence (Q12791 whole entry, species assumed): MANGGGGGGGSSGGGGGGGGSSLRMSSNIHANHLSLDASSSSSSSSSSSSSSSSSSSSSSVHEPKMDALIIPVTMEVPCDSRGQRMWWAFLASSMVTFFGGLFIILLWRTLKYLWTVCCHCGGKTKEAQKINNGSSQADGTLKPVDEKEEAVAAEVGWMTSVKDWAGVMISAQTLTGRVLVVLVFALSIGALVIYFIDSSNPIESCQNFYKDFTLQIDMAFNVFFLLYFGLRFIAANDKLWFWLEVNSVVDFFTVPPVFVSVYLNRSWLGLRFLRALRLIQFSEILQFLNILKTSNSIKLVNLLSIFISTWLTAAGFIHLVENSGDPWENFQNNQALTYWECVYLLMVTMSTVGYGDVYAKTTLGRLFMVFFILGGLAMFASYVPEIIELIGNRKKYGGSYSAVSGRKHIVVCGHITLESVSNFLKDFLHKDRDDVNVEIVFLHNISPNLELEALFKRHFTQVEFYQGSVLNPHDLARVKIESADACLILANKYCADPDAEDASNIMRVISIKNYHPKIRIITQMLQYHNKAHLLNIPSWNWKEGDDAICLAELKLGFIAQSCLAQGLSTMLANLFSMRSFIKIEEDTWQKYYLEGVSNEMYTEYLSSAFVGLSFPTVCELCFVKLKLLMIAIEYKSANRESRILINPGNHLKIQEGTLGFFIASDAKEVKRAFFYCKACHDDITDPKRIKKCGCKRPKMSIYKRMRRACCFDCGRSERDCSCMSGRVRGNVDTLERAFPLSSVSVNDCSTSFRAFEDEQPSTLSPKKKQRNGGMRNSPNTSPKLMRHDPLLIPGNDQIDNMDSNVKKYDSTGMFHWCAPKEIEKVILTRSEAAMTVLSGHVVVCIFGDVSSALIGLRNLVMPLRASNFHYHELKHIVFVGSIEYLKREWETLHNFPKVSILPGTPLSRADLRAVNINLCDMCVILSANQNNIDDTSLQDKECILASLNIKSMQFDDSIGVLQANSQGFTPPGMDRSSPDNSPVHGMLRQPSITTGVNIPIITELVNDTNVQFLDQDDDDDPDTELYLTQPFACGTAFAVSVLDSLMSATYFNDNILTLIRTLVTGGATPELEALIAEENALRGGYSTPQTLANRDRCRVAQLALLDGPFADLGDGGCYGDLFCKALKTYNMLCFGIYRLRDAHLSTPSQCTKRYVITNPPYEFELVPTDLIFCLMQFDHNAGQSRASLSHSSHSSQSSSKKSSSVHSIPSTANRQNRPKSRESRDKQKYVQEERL
BK channel, sequence (Q16558 whole entry partner, species assumed): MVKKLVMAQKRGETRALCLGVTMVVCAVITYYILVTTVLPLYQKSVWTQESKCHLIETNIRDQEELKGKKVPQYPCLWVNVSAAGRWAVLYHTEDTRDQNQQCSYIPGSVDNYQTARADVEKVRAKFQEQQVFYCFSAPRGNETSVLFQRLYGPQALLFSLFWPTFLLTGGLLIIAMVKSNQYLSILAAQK

| Compound | ΔV1/2 (mV) in 100 nm Ca^2+ (BK channels [2]; Table 1, V1/2 control vs drug) [mV] | ΔV1/2 (mV) in 100 nm Ca^2+ (BK channels [2]; Table 2) [mV] | effect on BK channel activity, in words (SAR discussion based on V1/2 data) (BK channels [2]) | other results |
| --- | --- | --- | --- | --- |
| Nc1c(S(=O)(=O)[O-])cc(Nc2ccccc2)c2c1C(=O)c1ccccc1C2=O.[Na+] [Acid Blue 25, Sodium 1-Amino-9,10-Dioxo-4-(Phenylamino)-9,10-Dihydroanthracene-2-Sulfonate] | −51.0 |  |  | amplitude of the outward BK current compared to control (BK channels [1]): enhances the amplitude of the BK current; shifted the V1/2 by (BK channels [2]; inside out patches, concentration not given): −56 mV |
| Nc1c(S(=O)(=O)[O-])cc(Nc2cccc(C(F)(F)F)c2)c2c1C(=O)c1ccccc1C2=O.[Na+] [SR-5-6, sodium 1-amino-9,10-dioxo-4-(3-(trifluoromethyl)phenylamino)-9,10-dihydroanthracene-2-sulfonate] |  |  |  | inward L-type calcium current amplitude (L-type calcium channel): reduced in amplitude |
| Basilen blue |  |  |  | BK channel activation, in words (BK channel): moderately potent BK channel activator |
| Nc1c(S(=O)(=O)[O-])cc(Nc2cccc(Cc3ccccc3)c2)c2c1C(=O)c1ccccc1C2=O.[Na+] [SR-5-68, sodium 1-amino-4-((3-benzylphenyl)amino)-9,10-dioxo-9,10-dihydroanthracene-2-sulfonate] |  | −120.0 | BK channel agonists |  |
| CC(C)c1cccc(Nc2cc(S(=O)(=O)[O-])c(N)c3c2C(=O)c2ccccc2C3=O)c1.[Na+] [SR-5-63, sodium 1-amino-4-((3-isopropylphenyl)amino)-9,10-dioxo-9,10-dihydroanthracene-2-sulfonate] |  | −113.1 | BK channel agonists |  |
| Nc1c(C(=O)O)cc(Nc2cccc(C(F)(F)F)c2)c2c1C(=O)c1ccccc1C2=O [SR-5-88, 1-amino-9,10-dioxo-4-((3-(trifluoromethyl)phenyl)amino)-9,10-dihydroanthracene-2-carboxylic acid] |  | −98.8 | activity was not altered |  |
| Nc1c(S(=O)(=O)[O-])cc(Nc2cccc(OC(F)(F)F)c2)c2c1C(=O)c1ccccc1C2=O.[Na+] [SR-5-34, sodium 1-amino-9,10-dioxo-4-(3-(trifluoromethoxy)phenylamino)-9,10-dihydroanthracene-2-sulfonate] | −84.0 |  |  |  |
| Nc1c(S(=O)(=O)[O-])cc(Nc2ccc3c(c2)CCC3)c2c1C(=O)c1ccccc1C2=O.[Na+] [SR-5-64, sodium 1-amino-4-((2,3-dihydro-1H-inden-5-yl)amino)-9,10-dioxo-9,10-dihydroanthracene-2-sulfonate] |  | −87.6 |  |  |
| Nc1c(S(=O)(=O)[O-])cc(Nc2cccc(F)c2)c2c1C(=O)c1ccccc1C2=O.[Na+] [SR-5-15, sodium 1-amino-4-(3-fluorophenylamino)-9,10-dioxo-9,10-dihydroanthracene-2-sulfonate] | −28.4 |  |  |  |
| Nc1c(S(=O)(=O)O)cc(Br)c2c1C(=O)c1ccccc1C2=O [Bromaminic acid, reference compound] |  |  | inhibitory effect |  |
| CCc1ccccc1Nc1cc(S(=O)(=O)[O-])c(N)c2c1C(=O)c1ccccc1C2=O.[Na+] [SR-5-96, sodium 1-amino-4-((2-ethylphenyl)amino)-9,10-dioxo-9,10-dihydroanthracene-2-sulfonate] |  | −84.8 | BK channel agonists |  |
| Nc1c(S(=O)(=O)[O-])cc(Nc2cccc3ccccc23)c2c1C(=O)c1ccccc1C2=O.[Na+] [SR-5-66] |  | −53.4 | potency was dropped substantially |  |
| COc1ccccc1Nc1cc(S(=O)(=O)[O-])c(N)c2c1C(=O)c1ccccc1C2=O.[Na+] [SR-5-12, sodium 1-amino-4-(2-methoxyphenylamino)-9,10-dioxo-9,10-dihydroanthracene-2-sulfonate] | −54.1 |  |  |  |
